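The compound was tested at five concentrations on cells cultured in 96-well plates, with a 48-hour exposure period. GI50 marks 50% less growth.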 The source made the active and inactive calls. No stated cut-off is given here; in the data, active = GI50 up to about 1.1 µM and inactive = higher.
Key:
Experiment in all cases: DTP human tumour cell line panel, 48 h
UACC-257 = test system: UACC-257
IGROV-1 = test system: IGROV-1
KM12 = test system: KM12
CCRF-CEM = test system: CCRF-CEM
786-0 = test system: 786-0
SK-OV-3 = test system: SK-OV-3
U-251 = test system: U-251
HOP-62 = test system: HOP-62
KM-20L2 = test system: KM-20L2
HL-60 = test system: HL-60
COLO 205 = test system: COLO 205
SF-268 = test system: SF-268
XF498 = test system: XF498
CAKI-1 = test system: CAKI-1
M14 = test system: M14
NCI-H23 = test system: NCI-H23
SK-MEL-2 = test system: SK-MEL-2
DMS-114 = test system: DMS-114
SW-620 = test system: SW-620
DLD-1 = test system: DLD-1
TK-10 = test system: TK-10
OVCAR-4 = test system: OVCAR-4
SK-MEL-5 = test system: SK-MEL-5
HOP-18 = test system: HOP-18
SNB-78 = test system: SNB-78
A498 = test system: A498
ACHN = test system: ACHN
SN12C = test system: SN12C
NCI-H522 = test system: NCI-H522
HCT-15 = test system: HCT-15
UACC-62 = test system: UACC-62
OVCAR-3 = test system: OVCAR-3
EKVX = test system: EKVX
UO-31 = test system: UO-31
SK-MEL-28 = test system: SK-MEL-28
A549 = test system: A549
LXFL 529 = test system: LXFL 529
SF-539 = test system: SF-539
NCI-H460 = test system: NCI-H460
SNB-75 = test system: SNB-75
RPMI-8226 = test system: RPMI-8226
OVCAR-8 = test system: OVCAR-8
SF-295 = test system: SF-295
SNB-19 = test system: SNB-19
DMS-273 = test system: DMS-273
K562 = test system: K562
MOLT-4 = test system: MOLT-4
RXF 631 = test system: RXF 631
HCT-116 = test system: HCT-116
M19-MEL = test system: M19-MEL
HCC 2998 = test system: HCC 2998
Malme-3M = test system: Malme-3M
HT-29 = test system: HT-29
RXF 393 = test system: RXF 393
OVCAR-5 = test system: OVCAR-5
HOP-92 = test system: HOP-92
LOX IMVI = test system: LOX IMVI
SR = test system: SR
NCI-H226 = test system: NCI-H226

SMILES: O=[N+]([O-])c1ccc(Cl)cc1C1SCc2nc3ccccc3n21 (configuration not stated)
- GI50 (UACC-257): 45.2 µM (inactive)
- GI50 (IGROV-1): 80.5 µM (inactive)
- GI50 (KM12): 41.9 µM (inactive)
- GI50 (CCRF-CEM): 34.8 µM (inactive)
- GI50 (786-0): 53 µM (inactive)
- GI50 (SK-OV-3): 62.8 µM (inactive)
- GI50 (U-251): 40.4 µM (inactive)
- GI50 (HOP-62): > 100 µM (inactive)
- GI50 (KM-20L2): > 100 µM (inactive)
- GI50 (HL-60): 31 µM (inactive)
- GI50 (COLO 205): 61.1 µM (inactive)
- GI50 (SF-268): 42.1 µM (inactive)
- GI50 (XF498): 65.5 µM (inactive)
- GI50 (CAKI-1): 33 µM (inactive)
- GI50 (M14): 31.2 µM (inactive)
- GI50 (NCI-H23): 27.6 µM (inactive)
- GI50 (SK-MEL-2): 62.4 µM (inactive)
- GI50 (DMS-114): 35.6 µM (inactive)
- GI50 (SW-620): 50.6 µM (inactive)
- GI50 (DLD-1): 37.2 µM (inactive)
- GI50 (TK-10): 87.5 µM (inactive)
- GI50 (OVCAR-4): 44.4 µM (inactive)
- GI50 (SK-MEL-5): 27.7 µM (inactive)
- GI50 (HOP-18): 13 µM (inactive)
- GI50 (SNB-78): 42.9 µM (inactive)
- GI50 (A498): 23.6 µM (inactive)
- GI50 (ACHN): 14.3 µM (inactive)
- GI50 (SN12C): 54.1 µM (inactive)
- GI50 (NCI-H522): 24.4 µM (inactive)
- GI50 (HCT-15): 31 µM
- GI50 (UACC-62): 61.8 µM (inactive)
- GI50 (OVCAR-3): 54.1 µM (inactive)
- GI50 (EKVX): 69.7 µM (inactive)
- GI50 (UO-31): 22.1 µM (inactive)
- GI50 (SK-MEL-28): > 100 µM (inactive)
- GI50 (A549): 41.7 µM (inactive)
- GI50 (LXFL 529): 48.3 µM (inactive)
- GI50 (SF-539): > 100 µM (inactive)
- GI50 (NCI-H460): 5.3 µM (inactive)
- GI50 (SNB-75): 16.3 µM (inactive)
- GI50 (RPMI-8226): 31.2 µM (inactive)
- GI50 (OVCAR-8): 60.8 µM (inactive)
- GI50 (SF-295): 85.7 µM (inactive)
- GI50 (SNB-19): 74.6 µM (inactive)
- GI50 (DMS-273): 31.6 µM (inactive)
- GI50 (K562): 33.1 µM (inactive)
- GI50 (MOLT-4): 36.3 µM (inactive)
- GI50 (RXF 631): 37.1 µM (inactive)
- GI50 (HCT-116): 38.3 µM (inactive)
- GI50 (M19-MEL): 61.7 µM (inactive)
- GI50 (HCC 2998): 86.3 µM (inactive)
- GI50 (Malme-3M): 99.8 µM (inactive)
- GI50 (HT-29): > 100 µM (inactive)
- GI50 (RXF 393): 26.6 µM (inactive)

SMILES: COC(=O)CSc1ccccc1
- GI50 (UACC-257): > 100 µM (inactive)
- GI50 (IGROV-1): > 100 µM (inactive)
- GI50 (KM12): > 100 µM (inactive)
- GI50 (CCRF-CEM): > 100 µM (inactive)
- GI50 (786-0): 11.6 µM (inactive)
- GI50 (SK-OV-3): > 100 µM (inactive)
- GI50 (U-251): > 100 µM (inactive)
- GI50 (OVCAR-5): > 100 µM (inactive)
- GI50 (HOP-62): > 100 µM (inactive)
- GI50 (KM-20L2): > 100 µM (inactive)
- GI50 (HL-60): > 100 µM (inactive)
- GI50 (COLO 205): > 100 µM (inactive)
- GI50 (SF-268): > 100 µM (inactive)
- GI50 (XF498): > 100 µM (inactive)
- GI50 (CAKI-1): > 100 µM (inactive)
- GI50 (M14): > 100 µM (inactive)
- GI50 (NCI-H23): > 100 µM (inactive)
- GI50 (SK-MEL-2): 11.5 µM (inactive)
- GI50 (SW-620): > 100 µM (inactive)
- GI50 (DLD-1): > 100 µM (inactive)
- GI50 (TK-10): > 100 µM (inactive)
- GI50 (OVCAR-4): > 100 µM (inactive)
- GI50 (SK-MEL-5): > 100 µM (inactive)
- GI50 (HOP-18): > 100 µM (inactive)
- GI50 (SNB-78): > 100 µM (inactive)
- GI50 (A498): > 100 µM (inactive)
- GI50 (ACHN): > 100 µM (inactive)
- GI50 (SN12C): > 100 µM (inactive)
- GI50 (HCT-15): > 100 µM
- GI50 (HOP-92): 50.9 µM (inactive)
- GI50 (UACC-62): > 100 µM (inactive)
- GI50 (OVCAR-3): > 100 µM (inactive)
- GI50 (EKVX): > 100 µM (inactive)
- GI50 (UO-31): > 100 µM (inactive)
- GI50 (LOX IMVI): > 100 µM (inactive)
- GI50 (A549): > 100 µM (inactive)
- GI50 (LXFL 529): > 100 µM (inactive)
- GI50 (SF-539): > 100 µM (inactive)
- GI50 (NCI-H460): > 100 µM (inactive)
- GI50 (SNB-75): > 100 µM (inactive)
- GI50 (RPMI-8226): > 100 µM (inactive)
- GI50 (OVCAR-8): > 100 µM (inactive)
- GI50 (SF-295): > 100 µM (inactive)
- GI50 (SNB-19): > 100 µM (inactive)
- GI50 (DMS-273): > 100 µM (inactive)
- GI50 (K562): > 100 µM (inactive)
- GI50 (MOLT-4): > 100 µM (inactive)
- GI50 (RXF 631): > 100 µM (inactive)
- GI50 (HCT-116): > 100 µM (inactive)
- GI50 (M19-MEL): > 100 µM (inactive)
- GI50 (HCC 2998): > 100 µM (inactive)
- GI50 (Malme-3M): 25.4 µM (inactive)
- GI50 (HT-29): > 100 µM (inactive)
- GI50 (RXF 393): > 100 µM (inactive)

SMILES: O=c1c(-c2ccccc2)c(O)nc2[nH]c3ccccc3n12
- GI50 (UACC-257): > 100 µM (inactive)
- GI50 (IGROV-1): > 100 µM (inactive)
- GI50 (KM12): > 100 µM (inactive)
- GI50 (CCRF-CEM): > 100 µM (inactive)
- GI50 (786-0): > 100 µM (inactive)
- GI50 (SK-OV-3): > 100 µM (inactive)
- GI50 (U-251): > 100 µM (inactive)
- GI50 (OVCAR-5): > 100 µM (inactive)
- GI50 (HOP-62): > 100 µM (inactive)
- GI50 (KM-20L2): > 100 µM (inactive)
- GI50 (HL-60): > 100 µM (inactive)
- GI50 (COLO 205): > 100 µM (inactive)
- GI50 (SF-268): > 100 µM (inactive)
- GI50 (XF498): > 100 µM (inactive)
- GI50 (CAKI-1): > 100 µM (inactive)
- GI50 (M14): > 100 µM (inactive)
- GI50 (NCI-H23): > 100 µM (inactive)
- GI50 (SK-MEL-2): > 100 µM (inactive)
- GI50 (DMS-114): > 100 µM (inactive)
- GI50 (SW-620): > 100 µM (inactive)
- GI50 (DLD-1): > 100 µM (inactive)
- GI50 (TK-10): > 100 µM (inactive)
- GI50 (OVCAR-4): > 100 µM (inactive)
- GI50 (SK-MEL-5): > 100 µM (inactive)
- GI50 (SR): 68.1 µM (inactive)
- GI50 (HOP-18): > 100 µM (inactive)
- GI50 (SNB-78): > 100 µM (inactive)
- GI50 (A498): > 100 µM (inactive)
- GI50 (ACHN): > 100 µM (inactive)
- GI50 (SN12C): > 100 µM (inactive)
- GI50 (NCI-H522): > 100 µM (inactive)
- GI50 (HCT-15): > 100 µM
- GI50 (HOP-92): > 100 µM (inactive)
- GI50 (UACC-62): > 100 µM (inactive)
- GI50 (OVCAR-3): > 100 µM (inactive)
- GI50 (EKVX): > 100 µM (inactive)
- GI50 (UO-31): > 100 µM (inactive)
- GI50 (NCI-H226): > 100 µM (inactive)
- GI50 (SK-MEL-28): > 100 µM (inactive)
- GI50 (LOX IMVI): > 100 µM (inactive)
- GI50 (A549): > 100 µM (inactive)
- GI50 (LXFL 529): > 100 µM (inactive)
- GI50 (SF-539): > 100 µM (inactive)
- GI50 (NCI-H460): > 100 µM (inactive)
- GI50 (SNB-75): > 100 µM (inactive)
- GI50 (RPMI-8226): > 100 µM (inactive)
- GI50 (OVCAR-8): > 100 µM (inactive)
- GI50 (SF-295): > 100 µM (inactive)
- GI50 (SNB-19): > 100 µM (inactive)
- GI50 (DMS-273): > 100 µM (inactive)
- GI50 (K562): > 100 µM (inactive)
- GI50 (MOLT-4): > 100 µM (inactive)
- GI50 (RXF 631): > 100 µM (inactive)
- GI50 (HCT-116): > 100 µM (inactive)
- GI50 (M19-MEL): > 100 µM (inactive)
- GI50 (HCC 2998): > 100 µM (inactive)
- GI50 (Malme-3M): > 100 µM (inactive)
- GI50 (HT-29): > 100 µM (inactive)
- GI50 (RXF 393): > 100 µM (inactive)

From ChEMBL document CHEMBL1201862, “PubChem BioAssay data set” (2004)
